25 compounds from US12655106B2 (Eikonizo Therapeutics, Inc., priority 2021, dated 2026) can be followed below.

Test [1] has as its target T1, Full length Human HDAC6 (Homo sapiens, UniProt Q9UBN7).
T1 construct: Full length Human HDAC6; FLAG (C); host or cells: baculovirus expression system
T1 sequence (Q9UBN7 1-1215): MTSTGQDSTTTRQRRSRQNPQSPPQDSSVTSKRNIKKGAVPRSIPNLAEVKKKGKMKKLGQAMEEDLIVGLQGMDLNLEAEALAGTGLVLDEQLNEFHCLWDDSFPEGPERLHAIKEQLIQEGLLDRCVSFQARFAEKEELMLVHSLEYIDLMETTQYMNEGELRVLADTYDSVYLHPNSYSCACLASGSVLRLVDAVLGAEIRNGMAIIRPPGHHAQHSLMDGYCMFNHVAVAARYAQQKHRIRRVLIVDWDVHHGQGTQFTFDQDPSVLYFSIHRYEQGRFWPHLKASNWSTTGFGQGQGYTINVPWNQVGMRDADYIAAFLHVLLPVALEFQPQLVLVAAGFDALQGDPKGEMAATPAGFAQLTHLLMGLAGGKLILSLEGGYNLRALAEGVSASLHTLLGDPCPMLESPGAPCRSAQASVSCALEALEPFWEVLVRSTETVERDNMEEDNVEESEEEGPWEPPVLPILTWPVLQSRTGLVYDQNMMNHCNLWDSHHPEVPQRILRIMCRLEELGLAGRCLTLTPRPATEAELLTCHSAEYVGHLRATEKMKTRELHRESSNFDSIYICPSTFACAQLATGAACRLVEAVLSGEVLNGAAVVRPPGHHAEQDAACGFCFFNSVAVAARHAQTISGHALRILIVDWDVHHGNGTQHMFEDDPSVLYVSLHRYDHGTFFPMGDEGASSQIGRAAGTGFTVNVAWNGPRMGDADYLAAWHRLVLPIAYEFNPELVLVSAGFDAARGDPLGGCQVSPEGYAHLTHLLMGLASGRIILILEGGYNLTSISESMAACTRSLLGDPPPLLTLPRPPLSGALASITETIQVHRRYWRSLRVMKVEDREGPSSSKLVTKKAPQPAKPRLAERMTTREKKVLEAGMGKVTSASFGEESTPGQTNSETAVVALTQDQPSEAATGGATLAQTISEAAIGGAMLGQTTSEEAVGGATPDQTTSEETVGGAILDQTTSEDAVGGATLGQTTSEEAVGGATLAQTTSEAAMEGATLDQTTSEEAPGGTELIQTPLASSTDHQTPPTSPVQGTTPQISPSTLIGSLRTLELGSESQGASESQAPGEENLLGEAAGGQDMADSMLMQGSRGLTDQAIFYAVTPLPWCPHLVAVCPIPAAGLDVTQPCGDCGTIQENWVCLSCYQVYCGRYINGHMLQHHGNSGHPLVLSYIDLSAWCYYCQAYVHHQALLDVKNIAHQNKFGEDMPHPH
Description: Caliper endpoint assay for HDAC enzymatic activity (HDAC6). It counts as biochemical. Particulars: for IC50: in vitro enzymatic, Caliper endpoint assay, 30 min pre-incubation, 1 μM substrate peptide; for Selectivity (6 v 8): ratio of HDAC8 IC50/HDAC6 IC50.

Test [2] has as its target T2, Full length Human HDAC8 (Homo sapiens, UniProt Q9BY41).
T2 construct: Full length Human HDAC8; HIS (N); host or cells: baculovirus expression system
T2 sequence (Q9BY41 1-377): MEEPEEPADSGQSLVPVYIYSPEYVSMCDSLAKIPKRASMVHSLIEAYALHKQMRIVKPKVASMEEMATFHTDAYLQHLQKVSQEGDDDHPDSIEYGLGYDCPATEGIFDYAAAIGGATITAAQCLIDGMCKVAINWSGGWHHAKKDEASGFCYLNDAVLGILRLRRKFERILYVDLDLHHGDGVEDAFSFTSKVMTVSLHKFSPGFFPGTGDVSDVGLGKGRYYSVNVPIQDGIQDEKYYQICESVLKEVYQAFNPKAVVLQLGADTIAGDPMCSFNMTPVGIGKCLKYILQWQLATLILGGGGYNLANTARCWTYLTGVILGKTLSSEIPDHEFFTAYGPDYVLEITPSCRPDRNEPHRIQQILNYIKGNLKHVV
Briefly: Caliper endpoint assay for HDAC enzymatic activity (HDAC8). Particulars: in vitro enzymatic, 30 min pre-incubation, 1 μM substrate peptide. The test is classed as biochemical.

Where only a bound is given, the exact number is not on record here.

Broadly, the IC50 is the concentration at which inhibition is half-maximal. High values mean a need for much substance, low ones inhibition by little substance. Regarding `O=C(NO)c1cc(F)c2c(c1)CCN([C@H]1C[C@@]3(CCCCO3)C1)C2` (single isomer, unassigned) [Compound 340, 8-fluoro-2-(5-oxaspiro[3.5]nonan-2-yl)-3,4-dihydro-1H-isoquinoline-6-carbohydroxamic acid], the figures for the IC50 in test [1] and in test [2] were 1 to 100 nM and 10 to 100 µM, respectively. Besides, the “Selectivity (6 v 8)” value in test [1] was “V (V: >1000)”.

Take `CC[C@H]1Cc2c(F)cc(C(=O)NO)cc2CN1CC1C2CNCC1C2` (single isomer, unassigned) [Compound 529]: in test [1], the IC50 lay in the range of 1 to 100 nM and the “Selectivity (6 v 8)” value is reported as “IV (IV: >100-1000)”. This compound also had a concentration for half-maximal inhibition (IC50) in test [2] of 10 to 100 µM.

`O=C(NO)c1cc(F)c2c(c1)CN1CCCC[C@H]1C2` [Compound 146]: in test [1], the IC50 lay in the range of 100 to 1000 nM and the “Selectivity (6 v 8)” value was “III (III: >10-100)”. In test [2], this compound returned an IC50 of 10 to 100 µM.

In the case of `CN1CCCCC12CC(N1CCc3cc(C(=O)NO)cc(F)c3C1)C2` (stereo not drawn) [Compound 352, 8-fluoro-2-(5-methyl-5-azaspiro[3.5]nonan-2-yl)-3,4-dihydro-1H-isoquinoline-6-carbohydroxamic acid], in test [1], the half-maximal inhibitory concentration (IC50) lay in the range of 1 to 100 nM and the “Selectivity (6 v 8)” value is recorded as “V (V: >1000)”. Besides, the IC50 in test [2] was above 100 µM.

On to `O=C(NO)c1cc(F)c2c(c1)CCN(C1CCC13CNC3)C2` (stereo not drawn) [Compound 301, 2-(2-azaspiro[3.3]heptan-7-yl)-8-fluoro-3,4-dihydro-1H-isoquinoline-6-carbohydroxamic acid], for which, in test [1], the IC50 was 1 to 100 nM and the “Selectivity (6 v 8)” value is recorded as “IV (IV: >100-1000)”. The compound further displayed an IC50 in test [2] of 1 to 10 µM.

As for `CC[C@H]1Cc2c(F)cc(C(=O)NO)cc2CN1CC12CC(C1)N(C)C2` (single isomer, unassigned) [Compound 535], in test [1], the IC50 is 1 to 100 nM and the “Selectivity (6 v 8)” value is on record as “IV (IV: >100-1000)”. In test [2], this compound returned an IC50 of 1 to 10 µM.

Take `O=C(NO)c1cc(F)c2c(c1)CCN(C1CCOC3(CCC3)C1)C2` (single isomer, unassigned) [Compound 446]: the 50% inhibitory concentration (IC50) in test [1] is 1 to 100 nM; in test [2] it was 10 to 100 µM. In addition, in test [1], the “Selectivity (6 v 8)” value is listed as “V (V: >1000)”.

For `CC[C@@H]1Cc2c(F)cc(C(=O)NO)cc2CN1C1CCC1` (single isomer, unassigned) [Compound 596], in test [1], the IC50 lay in the range of 1 to 100 nM and the “Selectivity (6 v 8)” value was “IV (IV: >100-1000)”. Besides, the IC50 in test [2] is 10 to 100 µM.

Consider `O=C(NO)c1cc(F)c2c(c1)CCN(C1CCC13CN(C1CC1)C3)C2` (stereo not drawn) [Compound 303, 2-(2-cyclopropyl-2-azaspiro[3.3]heptan-7-yl)-8-fluoro-3,4-dihydro-1H-isoquinoline-6-carbohydroxamic acid], for which the IC50 in test [1] was 1 to 100 nM; in test [2] it was 1 to 10 µM. The “Selectivity (6 v 8)” value in test [1] is recorded as “III (III: >10-100)”.

As for `O=C(NO)c1ccc2c(c1)CN1CCC[C@H]21` [Compound 164], in test [1], the IC50 lay within 1000 to 10000 nM and the “Selectivity (6 v 8)” value was “II (II: >1-10)”. This compound displayed an IC50 in test [2] of 1 to 10 µM.

On to `O=C(NO)c1cc(F)c2c(c1)CCN(C[C@@H]1CCC3(CCCCC3)C1)C2` (single isomer, unassigned) [Compound 107], for which the IC50 in test [1] was 1 to 100 nM; in test [2] it was 10 to 100 µM.

For the compound `CC(=O)N1CC2(C[C@H](N3CCc4cc(C(=O)NO)cc(F)c4C3)CCO2)C1` (single isomer, unassigned) [Compound 453], the 50% inhibitory concentration (IC50) in test [1] was in the range of 1 to 100 nM; in test [2] it was 10 to 100 µM. In addition, in test [1], the “Selectivity (6 v 8)” value is on record as “IV (IV: >100-1000)”.

As to `C[C@H]1CC[C@H]2c3c(F)cc(C(=O)NO)cc3CCN12` (single isomer, unassigned) [Compound 157], the IC50 in test [1] lay within 1 to 100 nM; in test [2], 1 to 10 µM.

With `CC[C@H]1Cc2c(F)cc(C(=O)NO)cc2CN1CC12CC3CC(CC(C3)C1)C2` (single isomer, unassigned) [Compound 508], in test [1], the IC50 was 1 to 100 nM and the “Selectivity (6 v 8)” value is “III (III: >10-100)”. For the same compound, in test [2], the IC50 was 1 to 10 µM.

For the compound `O=C(NO)c1cc(F)c2c(c1)CCN([C@@H]1CC[C@@]13CCOC3)C2` (single isomer, unassigned) [Compound 317], in test [1], the IC50 lay within 1 to 100 nM and the “Selectivity (6 v 8)” value is “IV (IV: >100-1000)”. The IC50 in test [2] was in the range of 10 to 100 µM.

As for `O=C(NO)c1cc(F)c2c(c1)CN(CC13CC4CC(CC(C4)O1)C3)CC2` [Compound 213, 2-(((1r,3s,5R,7S)-2-oxaadamantan-1-yl)methyl)-5-fluoro-N-hydroxy-1,2,3,4-tetrahydroisoquinoline-7-carboxamide], in test [1], the concentration for half-maximal inhibition (IC50) was 1 to 100 nM and the “Selectivity (6 v 8)” value is given as “III (III: >10-100)”. The compound also came in with an IC50 in test [2] of 0.1 to 1 µM.

As for `O=C(NO)c1cc(F)c2c(c1)CCN(C1CCC13CCN(C1CC1)CC3)C2` (stereo not drawn) [Compound 359, 2-(7-cyclopropyl-7-azaspiro[3.5]nonan-3-yl)-8-fluoro-3,4-dihydro-1H-isoquinoline-6-carbohydroxamic acid], the values for the IC50 in test [1] and in test [2] were 100 to 1000 nM and 1 to 10 µM, respectively. The “Selectivity (6 v 8)” value in test [1] is “III (III: >10-100)”.

For the compound `O=C(NO)c1cc(F)c2c(c1)CCN([C@H]1CCC3(CCCC3)C1)C2` (single isomer, unassigned) [Compound 185], the half-maximal inhibitory concentration (IC50) in test [1] is 1 to 100 nM; in test [2] it was 10 to 100 µM. Moreover, in test [1], the “Selectivity (6 v 8)” value was “IV (IV: >100-1000)”.

As for `CN1CC[C@]2(CC[C@@H](N3CCc4cc(C(=O)NO)cc(F)c4C3)C2)C1` (single isomer, unassigned) [Compound 402], in test [1], the 50% inhibitory concentration (IC50) was in the range of 1 to 100 nM and the “Selectivity (6 v 8)” value is recorded as “IV (IV: >100-1000)”. In test [2], this compound registered an IC50 of 1 to 10 µM.

`CC(=O)N1CC2(C[C@@H](N3CCc4cc(C(=O)NO)cc(F)c4C3)CCO2)C1` (single isomer, unassigned) [Compound 454]: in test [1], the half-inhibitory concentration (IC50) was 1 to 100 nM and the “Selectivity (6 v 8)” value is “IV (IV: >100-1000)”. Besides, in test [2], the IC50 lay in the range of 10 to 100 µM.

With `CC[C@H]1CCCN1Cc1ccc(C(=O)NO)cc1F` [Compound 49], the IC50 in test [1] lay within 100 to 1000 nM; in test [2], 1 to 10 µM.

With `O=C(NO)c1cc(F)c2c(c1)CCN(C1CC3(CCCO3)C1)C2` (single isomer, unassigned) [Compound 191, 8-fluoro-N-hydroxy-2-(5-oxaspiro[3.4]octan-2-yl)-1,2,3,4-tetrahydroisoquinoline-6-carboxamide], in test [1], the half-inhibitory concentration (IC50) fell in the range of 1 to 100 nM and the “Selectivity (6 v 8)” value is “IV (IV: >100-1000)”. In test [2], the IC50 lay within 10 to 100 µM.

Regarding `CC(=O)N1CC2(CCC(CN3CCc4cc(C(=O)NO)cc(F)c4C3)CC2)C1` [Compound 467, 2-[(2-acetyl-2-azaspiro[3.5]nonan-7-yl)methyl]-8-fluoro-3,4-dihydro-1H-isoquinoline-6-carbohydroxamic acid], the IC50 in test [1] was 1 to 100 nM; in test [2], 10 to 100 µM. Besides, the “Selectivity (6 v 8)” value in test [1] is reported as “IV (IV: >100-1000)”.

As to `O=C(NO)c1cc(F)c2c(c1)CCN(C1CCC3(COC3)C1)C2` (stereo not drawn) [Compound 387, 8-fluoro-2-(2-oxaspiro[3.4]octan-6-yl)-3,4-dihydro-1H-isoquinoline-6-carbohydroxamic acid], in test [1], the IC50 lay in the range of 1 to 100 nM and the “Selectivity (6 v 8)” value is on record as “IV (IV: >100-1000)”. For the same compound, the IC50 in test [2] fell in the range of 10 to 100 µM.

`O=C(NO)c1cc(F)c2c(c1)CCN(C[C@@]13CN[C@@H](CO1)C3)C2` [Compound 472, 8-fluoro-2-[[(1R,4R)-2-oxa-5-azabicyclo[2.2.1]heptan-1-yl]methyl]-3,4-dihydro-1H-isoquinoline-6-carbohydroxamic acid]: the IC50 in test [1] lay in the range of 1 to 100 nM; in test [2], 1 to 10 µM. In addition, the “Selectivity (6 v 8)” value in test [1] is recorded as “IV (IV: >100-1000)”.
